From US20150087697A1, “COMPOSITIONS AND METHODS FOR THE TREATMENT OF MUSCLE PAIN” (priority 2012, published 2015)

Test: in vivo
Conditions: rat, iv, 30 μg/min/kg

half-life (brain (striatum microdialysate, unbound drug)): 49.1 ± 7.3 min
half-life (plasma (femoral vein microdialysate, unbound drug)): 67.6 ± 1.4 min
SMILES: CC/C=C\C/C=C\C/C=C\C/C=C\C/C=C\CCCC(=O)OCCN(CC)CCOC(c1ccccc1)c1ccccc1 [Formula I (compound 1-4)]
